Measured values: article doi:10.1101/2023.10.20.563248v1 (biorxiv, 2023)

Assays:
Conditions in all cases: 1 µM; inhibitor
ACVRL1 = ACVRL1 (Homo sapiens, UniProt P37023)
AXL = AXL (Homo sapiens, UniProt P30530)
AurB = AurB (Homo sapiens, UniProt Q96GD4)
BMPR1A = BMPR1A (Homo sapiens, UniProt P36894)
BMPR1B = BMPR1B (Homo sapiens, UniProt O00238)
CDC42BPA = CDC42BPA (Homo sapiens, UniProt Q5VT25)
CDK1/CycB1 = CDK1/CycB1 (Homo sapiens, UniProt P06493)
CDK13 = CDK13 (Homo sapiens, UniProt Q14004)
CDK2 = CDK2 (Homo sapiens, UniProt P24941)
CSF1R = CSF1R (Homo sapiens, UniProt P07333)
DMPK = DMPK (Homo sapiens, UniProt Q09013)
EPHA1 = EPHA1 (Homo sapiens, UniProt P21709)
EPHA1, sequence (P21709 whole entry): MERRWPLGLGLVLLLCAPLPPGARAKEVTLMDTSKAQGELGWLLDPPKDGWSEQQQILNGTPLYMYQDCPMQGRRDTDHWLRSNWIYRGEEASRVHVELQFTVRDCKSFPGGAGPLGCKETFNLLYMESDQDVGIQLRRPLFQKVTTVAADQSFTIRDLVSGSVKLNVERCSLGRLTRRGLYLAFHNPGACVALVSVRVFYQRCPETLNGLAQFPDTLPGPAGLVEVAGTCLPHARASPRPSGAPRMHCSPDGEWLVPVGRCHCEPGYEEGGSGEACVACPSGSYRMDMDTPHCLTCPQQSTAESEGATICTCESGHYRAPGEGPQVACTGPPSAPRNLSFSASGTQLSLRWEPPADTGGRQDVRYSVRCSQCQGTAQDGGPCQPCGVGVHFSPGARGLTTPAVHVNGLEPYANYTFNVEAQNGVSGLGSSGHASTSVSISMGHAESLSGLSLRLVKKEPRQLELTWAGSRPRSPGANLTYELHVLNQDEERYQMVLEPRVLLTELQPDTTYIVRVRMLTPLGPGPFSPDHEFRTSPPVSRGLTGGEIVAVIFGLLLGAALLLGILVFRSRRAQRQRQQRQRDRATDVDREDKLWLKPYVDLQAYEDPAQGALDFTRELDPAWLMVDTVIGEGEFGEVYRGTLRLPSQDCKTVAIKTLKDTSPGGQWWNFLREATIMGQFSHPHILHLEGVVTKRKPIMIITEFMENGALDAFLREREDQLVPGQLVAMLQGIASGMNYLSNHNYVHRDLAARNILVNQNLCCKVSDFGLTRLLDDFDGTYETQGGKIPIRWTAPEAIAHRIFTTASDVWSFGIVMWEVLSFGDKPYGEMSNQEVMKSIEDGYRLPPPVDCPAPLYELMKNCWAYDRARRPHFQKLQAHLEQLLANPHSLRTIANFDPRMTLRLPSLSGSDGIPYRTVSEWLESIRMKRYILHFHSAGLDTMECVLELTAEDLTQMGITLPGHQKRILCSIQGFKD

EPHB1 = EPHB1 (Homo sapiens, UniProt P54762)
ERBB4 = ERBB4 (Homo sapiens, UniProt Q15303)
HCK = HCK (Homo sapiens, UniProt P08631)
HCK, sequence (P08631 whole entry): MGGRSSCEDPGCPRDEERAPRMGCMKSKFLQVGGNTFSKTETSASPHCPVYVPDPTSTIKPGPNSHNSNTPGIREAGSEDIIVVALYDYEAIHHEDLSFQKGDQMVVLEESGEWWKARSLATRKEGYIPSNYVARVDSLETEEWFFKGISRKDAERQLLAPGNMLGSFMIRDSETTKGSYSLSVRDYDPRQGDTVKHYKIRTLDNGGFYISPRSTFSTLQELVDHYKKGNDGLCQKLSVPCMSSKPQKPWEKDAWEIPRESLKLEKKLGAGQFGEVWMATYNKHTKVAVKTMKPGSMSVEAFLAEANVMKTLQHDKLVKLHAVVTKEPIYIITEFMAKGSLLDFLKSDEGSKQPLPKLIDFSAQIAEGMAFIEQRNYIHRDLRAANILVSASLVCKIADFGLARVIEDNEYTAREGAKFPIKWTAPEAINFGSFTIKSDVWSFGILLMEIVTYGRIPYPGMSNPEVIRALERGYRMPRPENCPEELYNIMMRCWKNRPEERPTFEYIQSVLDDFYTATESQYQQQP

HIPK2 = HIPK2 (Homo sapiens, UniProt Q9H2X6)
JNK1 = JNK1 (Homo sapiens, UniProt P45983)
MAP4K5 = MAP4K5 (Homo sapiens, UniProt Q9Y4K4)
MELK = MELK (Homo sapiens, UniProt Q14680)
MELK, sequence (Q14680 whole entry): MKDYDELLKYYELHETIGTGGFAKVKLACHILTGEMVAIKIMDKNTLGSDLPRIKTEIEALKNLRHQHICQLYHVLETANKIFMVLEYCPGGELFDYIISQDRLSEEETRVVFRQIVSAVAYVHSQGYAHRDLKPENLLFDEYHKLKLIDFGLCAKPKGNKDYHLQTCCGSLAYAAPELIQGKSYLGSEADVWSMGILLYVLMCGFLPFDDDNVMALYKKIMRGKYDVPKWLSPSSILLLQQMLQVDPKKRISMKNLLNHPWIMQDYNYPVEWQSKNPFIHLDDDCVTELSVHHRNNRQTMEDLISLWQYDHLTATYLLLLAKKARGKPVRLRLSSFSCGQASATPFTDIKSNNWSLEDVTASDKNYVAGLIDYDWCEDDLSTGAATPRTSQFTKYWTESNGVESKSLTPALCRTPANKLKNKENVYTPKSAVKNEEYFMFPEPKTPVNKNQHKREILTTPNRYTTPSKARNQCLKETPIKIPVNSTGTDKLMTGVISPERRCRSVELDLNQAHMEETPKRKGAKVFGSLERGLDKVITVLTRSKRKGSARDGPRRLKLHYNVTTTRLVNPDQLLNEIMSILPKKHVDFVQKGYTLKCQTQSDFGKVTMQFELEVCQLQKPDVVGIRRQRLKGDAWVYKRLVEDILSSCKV

MST4 = MST4 (Homo sapiens, UniProt Q9P289)
PAK3 = PAK3 (Homo sapiens, UniProt O75914)
PHKG1 = PHKG1 (Homo sapiens, UniProt Q16816)
PLK3 = PLK3 (Homo sapiens, UniProt Q9H4B4)
ROS = ROS (Homo sapiens, UniProt P08922)
SIK2 = SIK2 (Homo sapiens, UniProt Q9H0K1)
STK23 = STK23 (Homo sapiens, UniProt Q9UPE1)
STK23, sequence (Q9UPE1 whole entry): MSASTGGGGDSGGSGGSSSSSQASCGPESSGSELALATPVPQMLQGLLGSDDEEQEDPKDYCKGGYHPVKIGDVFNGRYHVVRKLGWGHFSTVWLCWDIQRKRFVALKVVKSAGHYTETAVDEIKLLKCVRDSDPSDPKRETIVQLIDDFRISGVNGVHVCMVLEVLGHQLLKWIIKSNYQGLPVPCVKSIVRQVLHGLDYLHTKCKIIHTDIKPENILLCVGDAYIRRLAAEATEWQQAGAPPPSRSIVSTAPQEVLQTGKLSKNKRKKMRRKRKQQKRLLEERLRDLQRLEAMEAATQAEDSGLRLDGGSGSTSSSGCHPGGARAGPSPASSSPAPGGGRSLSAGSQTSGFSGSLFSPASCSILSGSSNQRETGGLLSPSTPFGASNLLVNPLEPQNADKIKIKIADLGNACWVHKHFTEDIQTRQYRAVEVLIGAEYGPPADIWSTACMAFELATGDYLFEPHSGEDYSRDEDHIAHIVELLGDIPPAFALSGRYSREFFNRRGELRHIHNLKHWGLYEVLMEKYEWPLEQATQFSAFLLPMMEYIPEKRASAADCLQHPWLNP

TBK1 = TBK1 (Homo sapiens, UniProt Q9UHD2)
TSSK1 = TSSK1 (Homo sapiens, UniProt Q9BXA7)
TXK = TXK (Homo sapiens, UniProt P42681)
TYRO3 = TYRO3 (Homo sapiens, UniProt Q06418)
TYRO3, sequence (Q06418 whole entry): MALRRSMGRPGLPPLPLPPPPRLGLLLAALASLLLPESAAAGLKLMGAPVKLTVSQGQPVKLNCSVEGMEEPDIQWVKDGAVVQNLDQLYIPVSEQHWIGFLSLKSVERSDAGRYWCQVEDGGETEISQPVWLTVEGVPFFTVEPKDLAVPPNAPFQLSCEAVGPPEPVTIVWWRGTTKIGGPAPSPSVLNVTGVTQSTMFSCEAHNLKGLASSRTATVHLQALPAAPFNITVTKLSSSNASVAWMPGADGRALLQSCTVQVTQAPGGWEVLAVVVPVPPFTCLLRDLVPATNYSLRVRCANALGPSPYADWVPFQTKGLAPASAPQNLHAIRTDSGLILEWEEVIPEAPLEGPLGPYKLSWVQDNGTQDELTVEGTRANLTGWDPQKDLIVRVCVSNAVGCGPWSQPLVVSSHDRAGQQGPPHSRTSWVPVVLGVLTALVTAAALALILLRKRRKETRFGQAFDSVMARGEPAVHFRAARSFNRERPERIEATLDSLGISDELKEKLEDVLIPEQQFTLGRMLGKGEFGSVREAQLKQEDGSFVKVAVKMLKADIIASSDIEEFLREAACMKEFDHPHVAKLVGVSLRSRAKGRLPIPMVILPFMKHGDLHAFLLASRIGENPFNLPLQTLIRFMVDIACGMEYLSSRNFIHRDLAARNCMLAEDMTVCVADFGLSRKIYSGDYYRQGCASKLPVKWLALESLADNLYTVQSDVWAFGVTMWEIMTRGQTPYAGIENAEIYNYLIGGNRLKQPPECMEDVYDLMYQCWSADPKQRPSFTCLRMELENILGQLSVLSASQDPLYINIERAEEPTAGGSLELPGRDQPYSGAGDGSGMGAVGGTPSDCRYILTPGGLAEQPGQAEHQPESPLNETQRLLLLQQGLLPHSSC

VRK2 = VRK2 (Homo sapiens, UniProt Q86Y07)
VRK2, sequence (Q86Y07 whole entry): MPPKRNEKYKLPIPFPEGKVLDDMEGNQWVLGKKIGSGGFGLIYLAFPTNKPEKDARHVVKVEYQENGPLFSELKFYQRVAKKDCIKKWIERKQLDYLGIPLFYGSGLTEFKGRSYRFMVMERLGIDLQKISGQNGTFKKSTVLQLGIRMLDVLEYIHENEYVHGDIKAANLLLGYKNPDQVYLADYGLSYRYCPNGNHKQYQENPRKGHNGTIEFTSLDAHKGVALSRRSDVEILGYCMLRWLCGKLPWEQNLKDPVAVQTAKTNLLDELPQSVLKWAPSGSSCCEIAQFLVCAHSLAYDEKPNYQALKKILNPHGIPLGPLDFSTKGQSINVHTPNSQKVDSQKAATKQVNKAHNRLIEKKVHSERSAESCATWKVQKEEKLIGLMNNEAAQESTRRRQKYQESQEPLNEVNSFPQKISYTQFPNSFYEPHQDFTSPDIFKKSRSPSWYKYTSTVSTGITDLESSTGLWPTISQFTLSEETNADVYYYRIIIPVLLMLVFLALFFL

AXL, sequence (P30530 whole entry): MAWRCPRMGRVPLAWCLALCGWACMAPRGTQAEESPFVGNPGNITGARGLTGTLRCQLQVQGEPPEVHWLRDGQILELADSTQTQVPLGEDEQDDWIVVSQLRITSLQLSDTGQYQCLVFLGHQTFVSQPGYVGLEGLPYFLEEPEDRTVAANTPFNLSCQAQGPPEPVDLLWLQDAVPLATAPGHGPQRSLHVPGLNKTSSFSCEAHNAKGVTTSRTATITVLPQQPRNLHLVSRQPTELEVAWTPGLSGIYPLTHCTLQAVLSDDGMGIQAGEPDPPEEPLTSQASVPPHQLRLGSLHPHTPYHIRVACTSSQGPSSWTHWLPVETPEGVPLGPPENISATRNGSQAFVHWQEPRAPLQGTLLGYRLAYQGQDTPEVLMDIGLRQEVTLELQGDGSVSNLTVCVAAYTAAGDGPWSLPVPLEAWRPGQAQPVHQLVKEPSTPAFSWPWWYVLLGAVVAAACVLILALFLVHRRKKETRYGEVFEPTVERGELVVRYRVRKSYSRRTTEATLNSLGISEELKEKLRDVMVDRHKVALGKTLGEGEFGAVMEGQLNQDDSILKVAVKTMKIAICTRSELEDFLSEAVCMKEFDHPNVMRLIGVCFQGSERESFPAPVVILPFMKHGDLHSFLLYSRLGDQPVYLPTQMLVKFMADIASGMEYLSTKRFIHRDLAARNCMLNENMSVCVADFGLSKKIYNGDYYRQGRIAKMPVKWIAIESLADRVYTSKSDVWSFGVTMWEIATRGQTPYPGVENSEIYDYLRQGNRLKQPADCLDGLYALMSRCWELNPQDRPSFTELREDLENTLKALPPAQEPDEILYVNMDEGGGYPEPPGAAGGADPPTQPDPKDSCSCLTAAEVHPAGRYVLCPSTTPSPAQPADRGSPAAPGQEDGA

21c Remaining activity, percent of control [%] (ACVRL1): 91.0%
21c Remaining activity, percent of control [%] (AXL): 80.2%
21c Remaining activity, percent of control [%] (AurB): 83.9%
21c Remaining activity, percent of control [%] (BMPR1A): 108.3%
21c Remaining activity, percent of control [%] (BMPR1B): 80.1%
21c Remaining activity, percent of control [%] (CDC42BPA): 107.0%
21c Remaining activity, percent of control [%] (CDK1/CycB1): 87.2%
21c Remaining activity, percent of control [%] (CDK13): 101.2%
21c Remaining activity, percent of control [%] (CDK2): 103.0%
21c Remaining activity, percent of control [%] (CSF1R): 90.9%
21c Remaining activity, percent of control [%] (DMPK): 94.3%
21c Remaining activity, percent of control [%] (EPHA1): 99.3%
21c Remaining activity, percent of control [%] (EPHB1): 77.1%
21c Remaining activity, percent of control [%] (ERBB4): 90.7%
21c Remaining activity, percent of control [%] (HCK): 94.0%
21c Remaining activity, percent of control [%] (HIPK2): 74.8%
21c Remaining activity, percent of control [%] (JNK1): 95.6%
21c Remaining activity, percent of control [%] (MAP4K5): 78.8%
21c Remaining activity, percent of control [%] (MELK): 47.0%
21c Remaining activity, percent of control [%] (MST4): 18.0%
21c Remaining activity, percent of control [%] (PAK3): 103.3%
21c Remaining activity, percent of control [%] (PHKG1): 98.0%
21c Remaining activity, percent of control [%] (PLK3): 102.7%
21c Remaining activity, percent of control [%] (ROS): 109.6%
21c Remaining activity, percent of control [%] (SIK2): 97.5%
21c Remaining activity, percent of control [%] (STK23): 80.7%
21c Remaining activity, percent of control [%] (TBK1): 111.6%
21c Remaining activity, percent of control [%] (TSSK1): 95.8%
21c Remaining activity, percent of control [%] (TXK): 98.2%
21c Remaining activity, percent of control [%] (TYRO3): 77.8%
21c Remaining activity, percent of control [%] (VRK2): 96.9%
Structure (SMILES): O=C1NCCCCCNc2nc(c3ccccc3n2)Nc2cc1[nH]n2 [21c, (Z)-3^1H-2,5,11-triaza-1(4,2)-quinazolina-3(3,5)-pyrazolacycloundecaphan-4-one]
